Reference: ChEMBL document CHEMBL3425444, “Discovery of piperidin-4-yl-aminopyrimidine derivatives as potent non-nucleoside HIV-1 reverse transcriptase inhibitors” (Eur J Med Chem, 2015)
pEC50, pIC50: −log10 of the molar value.

Legend:
[1] = test system: Human immunodeficiency virus 1; test: Antiviral activity against wild type HIV1 3B infected in human MT4 cells assessed as protection from virus-induced cytopathicity after 4 days by MTT assay; assay type: functional, organism-based; conditions: Human immunodeficiency virus 1, 3B, MT4, 96 h
[2] = test system: Human immunodeficiency virus 1; test: Antiviral activity against HIV-1 RES056 harboring reverse transcriptase K103N/Y181C double mutant infected in human MT4 cells assessed as protection from virus-induced cytopathicity after 4 days by MTT assay; assay type: functional, organism-based; conditions: Human immunodeficiency virus 1, RES056, MT4, 96 h
[3] = test system: Human immunodeficiency virus 2; test: Antiviral activity against HIV-2 ROD infected in human MT4 cells assessed as protection from virus-induced cytopathicity after 4 days by MTT assay; assay type: functional, organism-based; conditions: Human immunodeficiency virus 2, ISOLATE ROD, MT4, 96 h
[4] = Cytotoxicity against human MT4 cells assessed as reduction of cell viability after 4 days by MTT assay; assay type: cell-based
[5] = Selectivity index, ratio of CC50 for human MT4 cells to EC50 for HIV1 3B infected in human MT4 cells; assay type: toxicity, cell-based; conditions: HIV1 3B infected MT4 cells, read-out: Selectivity Index
[6] = biological target: Human immunodeficiency virus type 1 reverse transcriptase (Human immunodeficiency virus 1, UniProt Q72547); test: Inhibition of HIV1 recombinant wild type reverse transcriptase p66/p51 assessed as reduction in biotin-labeled dUTP incorporation into DNA using polyr(A) x oligo(dT)16 template/primer hybrid
[7] = Retention time of the compound by HPLC analysis; assay type: physicochemical

Row | SMILES | pEC50 [1] | pEC50 [2] | pEC50 [3] | CC50 at 96 h [4] [µM] | selectivity ratio [5] | pIC50 [6] | Retention_time [7] [min]
1 | Cc1cc(C#N)cc(C)c1Oc1ccnc(NC2CCN(CC(=O)Nc3ccccc3)CC2)n1 | 8.48 | < 5.74 | < 5.74 | 1.82 | 551 | 6.70 | 10.9
2 | Cc1ccccc1NC(=O)CN1CCC(Nc2nccc(Oc3c(C)cc(C#N)cc3C)n2)CC1 | 7.21 | < 5.90 | < 5.90 | 1.25 | 20 |  | 11.33
3 | Cc1cccc(NC(=O)CN2CCC(Nc3nccc(Oc4c(C)cc(C#N)cc4C)n3)CC2)c1 | 8.18 | < 5.77 | < 5.77 | 1.68 | 254 |  | 11.43
4 | Cc1ccc(NC(=O)CN2CCC(Nc3nccc(Oc4c(C)cc(C#N)cc4C)n3)CC2)cc1 | 8.26 | < 5.69 | < 5.69 | 2.02 | 367 | 6.74 | 11.29
5 | Cc1cc(C)cc(NC(=O)CN2CCC(Nc3nccc(Oc4c(C)cc(C#N)cc4C)n3)CC2)c1 | 7.83 | < 5.64 | < 5.64 | 2.31 | 155 |  | 12.18
6 | Cc1ccc(NC(=O)CN2CCC(Nc3nccc(Oc4c(C)cc(C#N)cc4C)n3)CC2)cc1C | 8.07 | < 5.82 | < 5.82 | 1.51 | 177 |  | 12.21
7 | COc1ccc(NC(=O)CN2CCC(Nc3nccc(Oc4c(C)cc(C#N)cc4C)n3)CC2)cc1 | 8.46 | < 5.81 | < 5.81 | 1.56 | 446 |  | 10.82
8 | Cc1cc(C#N)cc(C)c1Oc1ccnc(NC2CCN(CC(=O)Nc3ccccc3F)CC2)n1 | 8.15 | < 3.93 | < 3.93 | 119 | 16900 | 6.68 | 11.43
9 | Cc1cc(C#N)cc(C)c1Oc1ccnc(NC2CCN(CC(=O)Nc3cccc(F)c3)CC2)n1 | 8.21 | < 5.85 | < 5.85 | 1.41 | 231 |  | 11.41
10 | Cc1cc(C#N)cc(C)c1Oc1ccnc(NC2CCN(CC(=O)Nc3ccc(F)cc3)CC2)n1 | 8.38 | < 5.74 | < 5.74 | 1.81 | 431 | 6.69 | 10.85
11 | Cc1cc(C#N)cc(C)c1Oc1ccnc(NC2CCN(CC(=O)Nc3ccccc3Cl)CC2)n1 | 7.46 | < 5.82 | < 5.82 | 1.51 | 44 |  | 12.14
12 | Cc1cc(C#N)cc(C)c1Oc1ccnc(NC2CCN(CC(=O)Nc3cccc(Cl)c3)CC2)n1 | 8.23 | < 5.90 | < 5.90 | 1.26 | 214 |  | 11.95
13 | Cc1cc(C#N)cc(C)c1Oc1ccnc(NC2CCN(CC(=O)Nc3ccc(Cl)cc3)CC2)n1 | 8.21 | < 6.00 | < 6.00 | 0.998 | 164 |  | 11.62
14 | Cc1cc(C#N)cc(C)c1Oc1ccnc(NC2CCN(CC(=O)Nc3ccc(Cl)cc3Cl)CC2)n1 | 6.93 | < 5.76 | < 5.76 | 1.75 | 15 |  | 13.21
15 | Cc1cc(C#N)cc(C)c1Oc1ccnc(NC2CCN(CC(=O)Nc3ccc(Cl)c(Cl)c3)CC2)n1 | 7.68 | < 5.89 | < 5.89 | 1.28 | 61 |  | 12.62
16 | Cc1cc(C#N)cc(C)c1Oc1ccnc(NC2CCN(CC(=O)Nc3cc(Cl)cc(Cl)c3)CC2)n1 | 7.12 | < 5.45 | < 5.45 | 3.52 | 46 |  | 13.08
17 | Cc1cc(C#N)cc(C)c1Oc1ccnc(NC2CCN(CC(=O)Nc3c(Cl)cc(Cl)cc3Cl)CC2)n1 | ≤ 6.52 | < 5.82 | < 5.82 | 1.5 | ≤ 5 |  | 11.85
18 | Cc1cc(C#N)cc(C)c1Oc1ccnc(NC2CCN(CC(=O)Nc3ccc(Br)cc3)CC2)n1 | 8.21 | < 5.83 | < 5.83 | 1.48 | 238 |  | 11.85
19 | Cc1cc(C#N)cc(C)c1Oc1ccnc(NC2CCN(CC(=O)Nc3ccc(C#N)cc3)CC2)n1 | 8.54 | < 6.22 | < 6.22 | 0.602 | 208 |  | 10.72
20 | Cc1cc(C#N)cc(C)c1Oc1ccnc(NC2CCN(CC(=O)Nc3ccc(C#N)cc3F)CC2)n1 | 8.10 | < 5.71 | < 5.71 | 1.96 | 245 | 6.76 | 11.27
21 | Cc1cc(C#N)cc(C)c1Oc1ccnc(NC2CCN(CC(=O)Nc3ccccc3[N+](=O)[O-])CC2)n1 | 7.38 | < 4.23 | < 4.23 | 59.3 | 1420 | 6.71 | 11.75
22 | Cc1cc(C#N)cc(C)c1Oc1ccnc(NC2CCN(CC(=O)Nc3cccc([N+](=O)[O-])c3)CC2)n1 | 8.11 | < 6.42 | < 6.42 | ≥ 0.379 | ≥ 49 | 6.81 | 11.49
23 | Cc1cc(C#N)cc(C)c1Oc1ccnc(NC2CCN(CC(=O)Nc3ccc([N+](=O)[O-])cc3)CC2)n1 | 8.24 | < 6.29 | < 6.29 | 0.518 | 89 | 6.87 | 11.13
24 | Cc1cc(C#N)cc(C)c1Oc1ccnc(NC2CCN(CC(=O)Nc3ccc(O)cc3)CC2)n1 | 8.68 | < 5.66 | < 5.66 | 2.18 | 1040 | 6.99 | 10.25
25 | Cc1cc(C#N)cc(C)c1Oc1ccnc(NC2CCN(CC(=O)Nc3ccc(S(N)(=O)=O)cc3)CC2)n1 | 8.72 | < 5.79 | < 5.79 | 1.61 | 845 | 6.94 | 9.11
26 | Cc1cc(S(N)(=O)=O)ccc1NC(=O)CN1CCC(Nc2nccc(Oc3c(C)cc(C#N)cc3C)n2)CC1 | 8.28 | < 5.79 | < 5.79 | 1.64 | 309 | 6.78 | 9.61
27 | CC(C)Nc1cccnc1N1CCN(C(=O)c2cc3cc(NS(C)(=O)=O)ccc3[nH]2)CC1 [DELAVIRDINE] |  | < 4.36 |  | > 43.8 | > 67 |  | 
28 | O=C1Nc2ccc(Cl)cc2[C@@](C#CC2CC2)(C(F)(F)F)O1 [EFAVIRENZ] | 8.20 |  |  | > 6.34 |  |  | 
29 | Cc1cc(C#N)cc(C)c1Oc1nc(Nc2ccc(C#N)cc2)nc(N)c1Br [ETRAVIRINE] |  | 7.60 |  | > 4.59 | > 1120 |  | 
